In ChEMBL document CHEMBL1146778, “The synthesis and antimicrobial evaluation of a new series of isoxazolinyl oxazolidinones” (2004):
In brackets after ≈: the same amount, converted by molar mass.

Legend:
Type in all cases: functional
Staphylococcus aureus [1] = assay: Tested for the dose to protect the mice from infection with Staphylococcus aureus OC 4172, by subcutaneous administration; details: sc
Staphylococcus aureus [2] = assay: Minimum inhibitory concentration (MIC) against methicillin-resistant Staphylococcus aureus (MRSA) OC2878
Enterococcus faecalis = assay: Minimum inhibitory concentration (MIC) against Enterococcus faecalis ATCC 29212
Escherichia coli [3] = assay: Minimum inhibitory concentration (MIC) against Escherichia coli OC 2530 (HS)
Mus musculus = assay: Tested for the dose to protect the mice from infection with Staphylococcus aureus OC 4172, by oral administration
Enterococcus faecium = assay: Minimum inhibitory concentration (MIC) against Enterococcus faecium OC 3312 (VRE)
Escherichia coli [4] = assay: Minimum inhibitory concentration (MIC) against Escherichia coli OC 2605
Staphylococcus aureus [5] = assay: Minimum inhibitory concentration (MIC) against Staphylococcus aureus OC 4172 in the presence of 50% mouse serum
Staphylococcus aureus [6] = assay: Minimum inhibitory concentration (MIC) against Staphylococcus aureus OC 4172 in the absence of mouse serum

Compound: CC(=O)NC[C@H]1CN(c2ccc(C3=NOC(C(N)=O)C3)c(F)c2)C(=O)O1 (stereo partly specified)
- ED50 (Staphylococcus aureus [1]): 11.8 mg/kg/day
- MIC (Staphylococcus aureus [2]): 2 µg/mL (≈ 5.49 µM)
- MIC (Enterococcus faecalis): 4 µg/mL (≈ 11 µM)
- MIC (Escherichia coli [3]): 32 µg/mL (≈ 87.8 µM)
- ED50 (Mus musculus): 40 mg/kg/day
- MIC (Enterococcus faecium): 4 µg/mL (≈ 11 µM)
- MIC (Escherichia coli [4]): > 64 µg/mL
- MIC (Staphylococcus aureus [5]): 1 µg/mL
- MIC (Staphylococcus aureus [6]): 2 µg/mL (≈ 5.49 µM)

Compound: COC(=O)c1cc(-c2ccc(N3C[C@H](CNC(C)=O)OC3=O)cc2F)no1
- MIC (Staphylococcus aureus [2]): 4 µg/mL (≈ 10.6 µM)
- MIC (Enterococcus faecalis): 16 µg/mL (≈ 42.4 µM)
- MIC (Escherichia coli [3]): 64 µg/mL (≈ 170 µM)
- MIC (Enterococcus faecium): 8 µg/mL (≈ 21.2 µM)
- MIC (Escherichia coli [4]): > 128 µg/mL
- MIC (Staphylococcus aureus [5]): > 128 µg/mL
- MIC (Staphylococcus aureus [6]): 8 µg/mL (≈ 21.2 µM)

Compound: CC(=O)NC[C@H]1CN(c2ccc(C3=NOC(CN(C)C)C3)c(F)c2)C(=O)O1 (stereo partly specified)
- MIC (Staphylococcus aureus [2]): 8 µg/mL (≈ 21.1 µM)
- MIC (Enterococcus faecalis): 8 µg/mL (≈ 21.1 µM)
- MIC (Escherichia coli [3]): 64 µg/mL (≈ 169 µM)
- MIC (Enterococcus faecium): 8 µg/mL (≈ 21.1 µM)
- MIC (Escherichia coli [4]): 128 µg/mL (≈ 338 µM)
- MIC (Staphylococcus aureus [5]): 2 µg/mL
- MIC (Staphylococcus aureus [6]): 8 µg/mL (≈ 21.1 µM)

Compound: COCCNC(=O)C1CC(c2ccc(N3C[C@H](CNC(C)=O)OC3=O)cc2F)=NO1 (stereo partly specified)
- MIC (Staphylococcus aureus [2]): 16 µg/mL (≈ 37.9 µM)
- MIC (Enterococcus faecalis): 16 µg/mL (≈ 37.9 µM)
- MIC (Escherichia coli [3]): 64 µg/mL (≈ 152 µM)
- MIC (Enterococcus faecium): 16 µg/mL (≈ 37.9 µM)
- MIC (Escherichia coli [4]): > 64 µg/mL
- MIC (Staphylococcus aureus [5]): 8 µg/mL
- MIC (Staphylococcus aureus [6]): 8 µg/mL (≈ 18.9 µM)

Compound: CC(=O)NC[C@H]1CN(c2ccc(C3=NOC(c4ccncc4)C3)c(F)c2)C(=O)O1 (stereo partly specified)
- MIC (Staphylococcus aureus [2]): 1 µg/mL (≈ 2.51 µM)
- MIC (Enterococcus faecalis): 4 µg/mL (≈ 10 µM)
- MIC (Escherichia coli [3]): 32 µg/mL (≈ 80.3 µM)
- MIC (Enterococcus faecium): 4 µg/mL (≈ 10 µM)
- MIC (Escherichia coli [4]): > 64 µg/mL
- MIC (Staphylococcus aureus [5]): 4 µg/mL
- MIC (Staphylococcus aureus [6]): 4 µg/mL (≈ 10 µM)

Compound: CC(=O)NC[C@H]1CN(c2ccc(C3=NOC(C(=O)N4CCOCC4)C3)c(F)c2)C(=O)O1 (stereo partly specified)
- MIC (Staphylococcus aureus [2]): 8 µg/mL (≈ 18.4 µM)
- MIC (Enterococcus faecalis): 8 µg/mL (≈ 18.4 µM)
- MIC (Escherichia coli [3]): 32 µg/mL (≈ 73.7 µM)
- MIC (Enterococcus faecium): 8 µg/mL (≈ 18.4 µM)
- MIC (Escherichia coli [4]): > 128 µg/mL
- MIC (Staphylococcus aureus [5]): 8 µg/mL
- MIC (Staphylococcus aureus [6]): 8 µg/mL (≈ 18.4 µM)

Compound: CC(=O)NC[C@H]1CN(c2ccc(C3=NOC(C#N)C3)c(F)c2)C(=O)O1 (stereo partly specified)
- ED50 (Staphylococcus aureus [1]): 22.4 mg/kg/day
- MIC (Staphylococcus aureus [2]): 1 µg/mL (≈ 2.89 µM)
- MIC (Enterococcus faecalis): 2 µg/mL (≈ 5.78 µM)
- MIC (Escherichia coli [3]): 16 µg/mL (≈ 46.2 µM)
- ED50 (Mus musculus): 22.1 mg/kg/day
- MIC (Enterococcus faecium): 2 µg/mL (≈ 5.78 µM)
- MIC (Escherichia coli [4]): 128 µg/mL (≈ 370 µM)
- MIC (Staphylococcus aureus [5]): 1 µg/mL
- MIC (Staphylococcus aureus [6]): 2 µg/mL (≈ 5.78 µM)

Compound: CC(=O)NC[C@H]1CN(c2ccc(C3=NOC(c4ccccn4)C3)c(F)c2)C(=O)O1 (stereo partly specified)
- ED50 (Staphylococcus aureus [1]): 22.8 mg/kg/day
- MIC (Staphylococcus aureus [2]): 2 µg/mL (≈ 5.02 µM)
- MIC (Enterococcus faecalis): 2 µg/mL (≈ 5.02 µM)
- MIC (Escherichia coli [3]): 8 µg/mL (≈ 20.1 µM)
- ED50 (Mus musculus): 31.6 mg/kg/day
- MIC (Enterococcus faecium): 2 µg/mL (≈ 5.02 µM)
- MIC (Escherichia coli [4]): > 64 µg/mL
- MIC (Staphylococcus aureus [5]): 4 µg/mL
- MIC (Staphylococcus aureus [6]): 2 µg/mL (≈ 5.02 µM)

Compound: CC(=O)NC[C@H]1CN(c2ccc(C3=NOC(CN4CCN(C(C)=O)CC4)C3)c(F)c2)C(=O)O1 (stereo partly specified)
- MIC (Staphylococcus aureus [2]): 8 µg/mL (≈ 17.3 µM)
- MIC (Enterococcus faecalis): 8 µg/mL (≈ 17.3 µM)
- MIC (Escherichia coli [3]): 16 µg/mL (≈ 34.7 µM)
- MIC (Enterococcus faecium): 16 µg/mL (≈ 34.7 µM)
- MIC (Escherichia coli [4]): > 32 µg/mL
- MIC (Staphylococcus aureus [5]): 8 µg/mL
- MIC (Staphylococcus aureus [6]): 8 µg/mL (≈ 17.3 µM)

Compound: CNC(=O)C1CC(c2ccc(N3C[C@H](CNC(C)=O)OC3=O)cc2F)=NO1 (stereo partly specified)
- MIC (Staphylococcus aureus [2]): 4 µg/mL (≈ 10.6 µM)
- MIC (Enterococcus faecalis): 4 µg/mL (≈ 10.6 µM)
- MIC (Escherichia coli [3]): 32 µg/mL (≈ 84.6 µM)
- MIC (Enterococcus faecium): 4 µg/mL (≈ 10.6 µM)
- MIC (Escherichia coli [4]): > 128 µg/mL
- MIC (Staphylococcus aureus [5]): 4 µg/mL
- MIC (Staphylococcus aureus [6]): 4 µg/mL (≈ 10.6 µM)

Compound: CC(=O)NC[C@H]1CN(c2ccc(-c3cc(-c4ccccn4)on3)c(F)c2)C(=O)O1
- ED50 (Staphylococcus aureus [1]): > 40 mg/kg/day
- MIC (Staphylococcus aureus [2]): 2 µg/mL (≈ 5.05 µM)
- MIC (Enterococcus faecalis): 4 µg/mL (≈ 10.1 µM)
- MIC (Escherichia coli [3]): 64 µg/mL (≈ 161 µM)
- MIC (Enterococcus faecium): 4 µg/mL (≈ 10.1 µM)
- MIC (Escherichia coli [4]): > 128 µg/mL
- MIC (Staphylococcus aureus [5]): 8 µg/mL
- MIC (Staphylococcus aureus [6]): 4 µg/mL (≈ 10.1 µM)

Compound: CC(=O)NCC1CC(c2ccc(N3C[C@H](CNC(C)=O)OC3=O)cc2F)=NO1 (stereo partly specified)
- MIC (Staphylococcus aureus [2]): 16 µg/mL (≈ 40.8 µM)
- MIC (Enterococcus faecalis): 16 µg/mL (≈ 40.8 µM)
- MIC (Escherichia coli [3]): 64 µg/mL (≈ 163 µM)
- MIC (Enterococcus faecium): 16 µg/mL (≈ 40.8 µM)
- MIC (Escherichia coli [4]): > 64 µg/mL
- MIC (Staphylococcus aureus [5]): 8 µg/mL
- MIC (Staphylococcus aureus [6]): 8 µg/mL (≈ 20.4 µM)

Compound: CCOC(=O)C1CC(c2ccc(N3C[C@H](CNC(C)=O)OC3=O)cc2F)=NO1 (stereo partly specified)
- MIC (Staphylococcus aureus [2]): 4 µg/mL (≈ 10.2 µM)
- MIC (Enterococcus faecalis): 16 µg/mL (≈ 40.7 µM)
- MIC (Escherichia coli [3]): 128 µg/mL (≈ 325 µM)
- MIC (Enterococcus faecium): 8 µg/mL (≈ 20.3 µM)
- MIC (Escherichia coli [4]): > 128 µg/mL
- MIC (Staphylococcus aureus [5]): > 128 µg/mL
- MIC (Staphylococcus aureus [6]): 8 µg/mL (≈ 20.3 µM)

Compound: CC(=O)NC[C@H]1CN(c2ccc(C3=NOC(Cn4ccnc4)C3)c(F)c2)C(=O)O1 (stereo partly specified)
- MIC (Enterococcus faecalis): > 32 µg/mL
- MIC (Escherichia coli [3]): > 32 µg/mL
- MIC (Enterococcus faecium): > 32 µg/mL
- MIC (Escherichia coli [4]): > 32 µg/mL
- MIC (Staphylococcus aureus [5]): > 32 µg/mL
- MIC (Staphylococcus aureus [6]): > 32 µg/mL

Compound: CC(=O)NC[C@H]1CN(c2ccc(C3=NOC(CN4CCOCC4)C3)c(F)c2)C(=O)O1 (stereo partly specified)
- MIC (Staphylococcus aureus [2]): 8 µg/mL (≈ 19 µM)
- MIC (Enterococcus faecalis): 16 µg/mL (≈ 38.1 µM)
- MIC (Escherichia coli [3]): 32 µg/mL (≈ 76.1 µM)
- MIC (Enterococcus faecium): 32 µg/mL (≈ 76.1 µM)
- MIC (Escherichia coli [4]): 64 µg/mL (≈ 152 µM)
- MIC (Staphylococcus aureus [5]): 16 µg/mL
- MIC (Staphylococcus aureus [6]): 16 µg/mL (≈ 38.1 µM)

Compound: CC(=O)NC[C@H]1CN(c2ccc(N3CCOCC3)c(F)c2)C(=O)O1 [LINEZOLID]
- ED50 (Staphylococcus aureus [1]): 5.4 mg/kg/day
- MIC (Escherichia coli [3]): 16 µg/mL (≈ 47.4 µM)
- ED50 (Mus musculus): 6.8 mg/kg/day
- MIC (Enterococcus faecium): 4 µg/mL (≈ 11.9 µM)
- MIC (Escherichia coli [4]): > 32 µg/mL
